Source: US6294526A, “Use of flavone derivatives for induction of β-lactam-sensitivity of MRSA” (priority 1998, dated 2001)
Values after ≈ are worked out from the molar mass of the structure shown. Where two headings read alike, the source gives them in different places.

Experiments:
MRSA [1] = test: antibacterial activity (MIC) by agar plate dilution method, MRSA strains; assay type: cell-based, methicillin-resistant Staphylococcus aureus; details: Staphylococcus aureus, 20 h; for MIC: range over strains
Procedure: (§1) The screening of the present invention may be carried out according to the agar plate dilution method designated by the Japan Society of Chemotherapy (Chemotherapy 29(1), 76-79 (1981)). Mueller-Hinton agar base semi-synthetic medium may be used for a plate culture medium for a sensitivity test together with an inoculating bacteria solution which may be prepared by culturing bacteria to be tested at 37° C. for 20 hours diluted with 8.5% by isotonic sodium chloride solution to 10^6 CFU/ml. Diluted β-lactam solutions are prepared by two times serial dilution. 1 ml of the diluted β-lactam solution and 1 ml of a predetermined concentration of a sample to be tested are added to 8 ml of the plate culture medium for a sensitivity test. To the resultant plate culture medium for sensitivity test, the bacteria are inoculated using a microplanter (SAKUMASEISAKUSYO Co.), cultured for 20 hours at 37° C. followed by assessing for a minimum inhibition concentration (MIC).
(§2) (A) Antibacterial activities of ether extract from Scutellaria barbata, SB-1 (isolated from Scutellaria barbata), apigenin (authentic sample) and luteolin (authentic sample) were shown in Table 1.
(§3) Flavones were dissolved in methanol and the others were dissolved in 0.1 N NaOH. A method for determination of antibacterial activity is, as described above, an agar plate dilution method designated by the Japan Society of Chemotherapy (Chemotherapy 29(1), 76-79 (1981)) to determine MIC value. MIC80 is a concentration at which a strain is prohibited to proliferate by 80% and MIC50 is a concentration at which a strain is prohibited to proliferate by 50%.

MSSA = test: antibacterial activity (MIC) by agar plate dilution method, MSSA strains; assay type: cell-based, Methicillin-sensitive Staphylooccus aureus; details: Staphylococcus aureus, 20 h; for MIC: range over strains
Procedure: as §1, §2, §3

MRSA [2] = test: antibacterial activity of antibiotics alone and in the presence of apigenin (4 μg/ml), MRSA; assay type: cell-based, methicillin-resistant Staphylococcus aureus; details: MRSA
Procedure: as §1
(D) Then use of 4 μg/ml of apigenin and other antibiotics at the same time was studied. The antibiotics are penicillin , ampicillin, cephalothin, cefoxitin, cefuroxime, cefotaxime, vancomycin, streptomycin, chloramphenicol, kanamycin, erythromycin, nalixic acid and tetracycline.

MRSA No. 5 = test: effect of flavone on antibacterial activity of antibiotics against MRSA No. 5 in bouillon (broth microdilution); assay type: cell-based, methicillin-resistant Staphylococcus aureus; details: for MIC: Staphylococcus aureus, MRSA, 20 h
Procedure: Alternatively, the screening of the present invention may be carried out according to the broth microdilution method designated by the Japan Society of Chemotherapy (Chemotherapy 38(1), 102-105 (1990)). Muellar-Hinton broth is used as a culture medium for the sensitivity test, and 50 mg/ml of calcium(Ca) ion, 25 mg/ml of magnesium(Mg) ion, and 2% sodium chloride (NaCl) are added thereto. An inoculating bacteria solution may be prepared by culturing bacteria to be tested in Mueller-Hinton broth at 37° C. for 20 hours and diluting with Mueller-Hinton broth to 10^5 CFU/ml final concentration of inoculating bacteria. Diluted β-lactam solution is prepared by two times serial dilution series. 10 μl of the diluted β-lactam solution and 10 μl of a predetermined concentration of a sample of bacteria to be tested are added to mix with 80 μl of the culture medium for the sensitivity test. To the resultant plate culture medium for sensitivity test, the inoculating bacteria are added and culturing is carried out for 20 hours at 37° C. and then assessment for a minimum inhibition concentration (MIC) is carried out. A minimum inhibition concentration means the minimum concentration of β-lactam at which growth of bacteria is not recognized by the naked eye.
(G) Antibacterial activity of 6 β-lactams, that is, cephalothin, cefuroxime, cefotaxime, cefoxitin, streptomycin and vancomycin, against MRSA in the presence of 0.5 mM flavone was studied in bouillon.
Muellar-Hinton broth was used as a culture medium for the sensitivity test, and 50 mg/ml of calcium (Ca) ion, 25 mg/ml of maqnesium (Mg) ion, 2% sodium chloride (NaCl) were added thereto. An inoculating bacteria solution was prepared by culturing bacteria to be tested with Mueller-Hinton broth at 37° C. for 20 hours and diluting with Mueller-Hinton broth to 10^5 CFU/ml final concentration of inoculating bacteria. Diluted β-lactam solutions were prepared in two times serial dilutions starting from 10 mM. Ten microliters of the diluted β-lactam solution and 10 μl of 5 mM of flavone were mixed with 80 μl of the culture medium for the sensitivity test in a microplate having U-shaped wells and samples of bacteria to be tested were added thereto. The mixture was cultured 20 hours at 37° C. and then assessed for minimum inhibition concentration (MIC). Minimum inhibition concentration means minimum concentration of a β-lactum at which growth of bacteria is inhibited to the extent that bacteria is not recognized by the naked eye.

[3] = MRSA (20 strains), read-out: MIC50
[4] = MRSA, MRSA (20 strains), read-out: MIC
[5] = MSSA (7 strains), read-out: MIC50
[6] = MSSA, MSSA (7 strains), read-out: MIC
[7] = Staphylococcus aureus, 20 h, Antibiotics alone
[8] = Staphylococcus aureus, 20 h, antibiotic with Apigenin (4 μg/ml)
[9] = Concentration of flavone 0.5 mM

MIC50 (MRSA [1]; [3]) [µg/mL]	MIC (MRSA [1]; [4]) [µg/mL]	MIC50 (MSSA; [5]) [µg/mL]	MIC (MSSA; [6]) [µg/mL]	SMILES	MIC50 (MRSA [2]; [7]) [µg/mL]	MIC50 (MRSA [2]; [8]) [µg/mL]	other results
> 250	> 250	> 250	> 250	O=c1c(-c2ccc(O)cc2)coc2cc(O)cc(O)c12 [Genistein, genistein]	–	–	–
> 250	> 250	> 250	> 250	COc1ccc([C@@H]2CC(=O)c3c(O)cc(O)cc3O2)cc1O [Hesperetin, hesperetin]	–	–	–
–	–	–	–	NC[C@H]1O[C@H](O[C@H]2[C@H](O)[C@@H](O[C@H]3O[C@H](CO)[C@@H](O)[C@H](N)[C@H]3O)[C@H](N)C[C@@H]2N)[C@H](O)[C@@H](O)[C@@H]1O [Kanamycin, kanamycin]	> 250	250	–
–	–	–	–	O=C1C[C@@H](c2ccc(O)cc2)Oc2cc(O)ccc21 [Liquiritigenin, liquiritigenin]	–	–	MIC50 (MRSA [1]; MRSA): > 250 µg/mL; MIC50 (MSSA; MSSA): > 250 µg/mL
> 250	–	> 250	> 250	O=c1c(O)c(-c2cc(O)c(O)c(O)c2)oc2cc(O)cc(O)c12 [Myricetin, myricetin]	–	–	–
–	–	–	–	CCn1cc(C(=O)O)c(=O)c2ccc(C)nc21 [Nalidixic acid]	> 250	> 250	–
> 250	> 250	> 250	> 250	O=C1C[C@@H](c2ccc(O)cc2)Oc2cc(O)cc(O)c21 [Naringenin, naringenin]	–	–	–
–	–	–	–	Cc1onc(-c2ccccc2)c1C(=O)N[C@@H]1C(=O)N2[C@@H]1SC(C)(C)[C@@H]2C(=O)O [Oxacillin, oxacillin]	250	250	MIC (MRSA No. 5; Concentration of flavone 0 mM): 1000 µM (≈ 401 µg/mL); MIC (MRSA No. 5; [9]): 15.6 µM (≈ 6.26 µg/mL)
–	–	–	–	CC1(C)S[C@@H]2[C@H](NC(=O)Cc3ccccc3)C(=O)N2[C@H]1C(=O)O [Penicillin G, penicillin G]	31.3	15.6	MIC (MRSA [2]; [7]): 0.49 to 125 µg/mL; MIC (MRSA [2]; [8]): 0.49 to 62.5 µg/mL
–	–	–	–	O=c1c(O)c(-c2ccc(O)c(O)c2)oc2cc(O)c(O)c(O)c12 [Quercetagetin, quercetagetin]	–	–	MIC50 (MRSA [1]; MRSA): > 250 µg/mL; MIC (MRSA [1]; MRSA, MRSA (20 strains)): > 250 µg/mL; MIC50 (MSSA; MSSA): > 250 µg/mL; MIC (MSSA; MSSA, MSSA (7 strains)): > 250 µg/mL
> 250	> 250	> 250	> 250	COc1cc(O)c2c(=O)c(O)c(-c3ccc(O)c(O)c3)oc2c1 [Rhamnetin, rhamnetin]	–	–	–
–	–	–	–	[H]/N=C(/N)N[C@H]1[C@H](O)[C@@H](O)[C@H](O[C@@H]2O[C@@H](C)[C@](O)(C=O)[C@H]2O[C@@H]2O[C@@H](CO)[C@H](O)[C@@H](O)[C@@H]2NC)[C@@H](N/C(N)=N\[H])[C@@H]1O [Streptomycin, streptomycin]	7.8	7.6	MIC (MRSA [2]; [7]): 7.8 to 15.6 µg/mL; MIC (MRSA [2]; [8]): 2 to 15.6 µg/mL; MIC (MRSA No. 5; [9]): < 0.98 µM; inhibitory effect on resistance of MRSA No.5 (in words) (MRSA No. 5; in the presence of flavone 0.5 mM): appeared not to be showed
–	–	–	–	CN(C)C1C(=O)C(C(N)=O)=C(O)C2(O)C(=O)C3=C(O)c4c(O)cccc4C(C)(O)C3CC12 (centres unmarked) [Tetracycline, tetracycline]	0.98	0.98	MIC (MRSA [2]; Antibiotics alone): 0.24 to 250 µg/mL; MIC (MRSA [2]; [8]): 0.49 to 250 µg/mL
